The text below walks through data of patent US9938269B2, “Inhibitor compounds of phosphodiesterase type 10A” (ABBVIE INC., priority 2011, dated 2018).

Structures can show the parent of a compound that is named as a salt.

Data set [1] can be described thus: Determination of the microsomal half-life, human liver microsomes. The conditions noted are these: human, liver microsomes, pH 7.4.
The target of data set [2] is T1, PDE10A (human) (Homo sapiens, UniProt Q9Y233).
T1 construct: purchased BPS Bioscience
T1 sequence (Q9Y233 whole entry): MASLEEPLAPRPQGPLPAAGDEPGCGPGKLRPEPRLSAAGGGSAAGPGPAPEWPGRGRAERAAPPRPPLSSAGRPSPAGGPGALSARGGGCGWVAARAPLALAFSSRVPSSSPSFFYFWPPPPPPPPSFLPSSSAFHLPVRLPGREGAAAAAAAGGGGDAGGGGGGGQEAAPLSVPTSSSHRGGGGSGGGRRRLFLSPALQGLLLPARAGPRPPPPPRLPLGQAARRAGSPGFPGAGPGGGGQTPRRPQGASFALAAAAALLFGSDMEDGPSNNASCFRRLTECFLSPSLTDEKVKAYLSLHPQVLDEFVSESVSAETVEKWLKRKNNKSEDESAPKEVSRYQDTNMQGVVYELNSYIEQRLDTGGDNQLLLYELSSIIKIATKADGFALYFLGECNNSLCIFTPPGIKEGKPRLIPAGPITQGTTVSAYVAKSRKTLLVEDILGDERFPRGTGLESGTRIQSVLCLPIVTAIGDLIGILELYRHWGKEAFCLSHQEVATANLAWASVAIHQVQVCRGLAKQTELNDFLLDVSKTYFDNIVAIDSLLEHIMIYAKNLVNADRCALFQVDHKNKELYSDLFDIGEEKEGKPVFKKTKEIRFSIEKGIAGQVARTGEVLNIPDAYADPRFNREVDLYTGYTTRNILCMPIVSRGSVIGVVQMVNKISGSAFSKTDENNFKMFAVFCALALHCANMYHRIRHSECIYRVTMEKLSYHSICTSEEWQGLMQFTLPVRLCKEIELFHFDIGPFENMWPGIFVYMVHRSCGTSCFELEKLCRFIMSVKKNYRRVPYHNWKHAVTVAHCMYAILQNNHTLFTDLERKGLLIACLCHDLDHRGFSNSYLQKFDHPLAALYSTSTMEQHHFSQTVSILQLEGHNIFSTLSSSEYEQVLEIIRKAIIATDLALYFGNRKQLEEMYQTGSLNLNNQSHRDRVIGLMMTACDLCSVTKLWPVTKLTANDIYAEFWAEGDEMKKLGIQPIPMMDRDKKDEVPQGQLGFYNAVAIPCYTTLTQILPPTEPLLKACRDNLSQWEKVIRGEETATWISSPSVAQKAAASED
The data set is described as follows: Measurement of PDE activity (HTRF cAMP kit), human PDE10A. The format is biochemical. The conditions noted are these: PDE enzymatic reaction, substrate 20 nM for PDE10, 60 minutes at 29 C. The procedure, abridged: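 HTRF detection of cAMP left after hydrolysis, expressed as percent of uninhibited control to derive IC50. Reaction: serially diluted inhibitor mixed with recombinant enzyme, started with 20 nM cAMP, 60 min at 29 °C in Tris-HCl pH 7.5 buffer containing MgCl2 and BSA.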
(TR-FRET usually uses a lanthanide donor and a delayed reading to cut background.)

Data set [3] in a line: Determination of the microsomal half-life, rat liver microsomes. As to conditions: rat, liver microsomes, pH 7.4. A general note: Microsomes from liver hold many membrane-bound enzymes, among them those of drug oxidation.
Procedure: The test substances were incubated in a concentration of 0.5 μM as follows:
0.5 μM test substance are preincubated together with liver microsomes from different species (from rat, human or other species) (0.25 mg of microsomal protein/10 in 0.05 M potassium phosphate buffer of pH 7.4 in microtiter plates at 37° C. for 5 min. The reaction is started by adding NADPH (1 mg/mL). After 0, 5, 10, 15, 20 and 30 min., 50 μl aliquots are removed, and the reaction is immediately stopped and cooled with the same volume of acetonitrile. The samples are frozen until analyzed. The remaining concentration of undegraded test substance is determined by MSMS. The half-life (T½) is determined from the gradient of the signal of test substance/unit time plot, it being possible to calculate the half-life of the test substance, assuming first order kinetics, from the decrease in the concentration of the compound with time. The microsomal clearance (mCl) is calculated from mCl=ln 2/T½/(content of microsomal protein in mg/ml)×1000 [ml/min/mg]

As a reminder, the microsomal CLint is the rate of metabolic loss divided by the concentration. As a reminder, the IC50 is the point on the concentration scale where inhibition reaches its midpoint. Regarding `O=C1c2c(-c3cccnc3)ccc(F)c2CN1CCc1cn2ccccc2n1` [Example 378, 4-Fluoro-2-(2-imidazo[1,2-a]pyridin-2-yl-ethyl)-7-pyridin-3-yl-2,3-dihydro-isoindol-1-one], the intrinsic clearance (microsomal CLint) at 0.5 μM is 100 to 220 µL/min/mg in data set [1] and below 100 µL/min/mg in data set [3]. The compound further had an IC50 in data set [2] below 100 nM.
Regarding `O=C1c2c(-c3cscn3)ccnc2CN1CCc1nc2ccccc2s1` [compound 436, 6-[2-(1,3-Benzothiazol-2-yl)ethyl]-4-thiazol-4-yl-7H-pyrrolo[3,4-b]pyridin-5-one], the microsomal CLint at 0.5 μM in data set [1] and in data set [3] was below 100 µL/min/mg in each case. For the same compound, the IC50 in data set [2] was 200 to 500 nM.
Consider `O=C1c2c(-c3cc[nH]n3)ccnc2CN1CCc1nc2ccccc2s1` [compound 429, 6-[2-(1,3-Benzothiazol-2-yl)ethyl]-4-(1H-pyrazol-3-yl)-7H-pyrrolo[3,4-b]pyridin-5-one], for which the microsomal CLint at 0.5 μM in data set [1] and in data set [3] was below 100 µL/min/mg in each case. This compound displayed a 50% inhibitory concentration (IC50) in data set [2] below 100 nM.
In the case of `O=C1c2c(N3CCOCC3)ccnc2CN1CCc1ccccn1` [compound 550, 4-Morpholino-6-[2-(2-pyridyl)ethyl]-7H-pyrrolo[3,4-b]pyridin-5-one], the microsomal CLint at 0.5 μM in data set [1] and in data set [3] was below 100 µL/min/mg each time. Further, the IC50 in data set [2] is 200 to 500 nM.
For the compound `O=C1c2c(-c3ccncc3)ccnc2CN1CCc1nc2ccccc2o1` [compound 418, 6-[2-(1,3-Benzoxazol-2-yl)ethyl]-4-(4-pyridyl)-7H-pyrrolo[3,4-b]pyridin-5-one], the microsomal CLint at 0.5 μM in data set [1] and in data set [3] was below 100 µL/min/mg throughout. The compound also had an IC50 in data set [2] of 200 to 500 nM.
`Cc1cnc(CCN2Cc3nccc(-c4ccncc4)c3C2=O)cc1C` [compound 507, 6-[2-(4,5-Dimethyl-2-pyridyl)ethyl]-4-(4-pyridyl)-7H-pyrrolo[3,4-b]pyridin-5-one trifluoroacetate]: the intrinsic clearance (microsomal CLint) at 0.5 μM in data set [1] was 100 to 220 µL/min/mg; in data set [3], above 220 µL/min/mg. In addition, the IC50 in data set [2] was in the range of 200 to 500 nM.
The corresponding values for `O=C1c2c(NC3COC3)ccnc2CN1CCc1nc2ccccc2s1` [Example 376, 6-(2-Benzothiazol-2-yl-ethyl)-4-(oxetan-3-ylamino)-6,7-dihydro-pyrrolo[3,4-b]pyridin-5-one] are below 100 µL/min/mg, below 100 µL/min/mg and below 100 nM.
The corresponding values for `O=C1c2c(N3CCOCC3)ccnc2CN1CCc1nc2ccccc2o1` [compound 417, 6-[2-(1,3-Benzoxazol-2-yl)ethyl]-4-morpholino-7H-pyrrolo[3,4-b]pyridin-5-one] are below 100 µL/min/mg, below 100 µL/min/mg and 100 to 200 nM.
Consider `COc1cccc(CCN2Cc3nccc(-c4cccnc4)c3C2=O)n1` [compound 503, 6-[2-(6-Methoxy-2-pyridyl)ethyl]-4-(3-pyridyl)-7H-pyrrolo[3,4-b]pyridin-5-one trifluoroacetate], for which the microsomal CLint at 0.5 μM in data set [1] and in data set [3] was 100 to 220 µL/min/mg throughout. Besides, in data set [2], the half-inhibitory concentration (IC50) is 100 to 200 nM.
Regarding `Cc1ccnc(CCN2Cc3nccc(N4CCOCC4)c3C2=O)c1` [compound 521, 6-[2-(4-Methyl-2-pyridyl)ethyl]-4-morpholino-7H-pyrrolo[3,4-b]pyridin-5-one], the microsomal CLint at 0.5 μM in data set [1] and in data set [3] was below 100 µL/min/mg each time. Besides, the IC50 in data set [2] lay within 200 to 500 nM.
Consider `CN1CCN(c2cccc3c2C(=O)N(CCc2ccc4ccccc4n2)C3)CC1` [Example 107, 7-(4-Methyl-piperazin-1-yl)-2-(2-quinolin-2-yl-ethyl)-2,3-dihydro-isoindol-1-one], for which the intrinsic clearance (microsomal CLint) at 0.5 μM in data set [1] and in data set [3] was below 100 µL/min/mg in each case. The compound also showed an IC50 in data set [2] of 200 to 500 nM.
On to `O=C1c2cccc(OCc3cccnc3)c2C(=O)N1CCc1ccc2ccccc2n1` [Example 246, 4-(Pyridin-3-ylmethoxy)-2-(2-quinolin-2-yl-ethyl)-isoindole-1,3-dione], for which the results for the microsomal CLint at 0.5 μM in data set [1] and in data set [3] were 100 to 220 µL/min/mg and above 220 µL/min/mg, respectively. In addition, the half-maximal inhibitory concentration (IC50) in data set [2] is below 100 nM.
